Patent publication US7517874B2 (priority 2007, dated 2009)
Read-outs that look alike come from different tables or passages of the source.

Legend:
[1] = molecular target: T1, rat CB2 receptor (rCB2) (Rattus norvegicus, UniProt Q9QZN9); test: cell-based; assay type: cell-based; settings: for +/− RCB2: agonist or inverse agonist at rCB2
T1 sequence (Q9QZN9 1-360): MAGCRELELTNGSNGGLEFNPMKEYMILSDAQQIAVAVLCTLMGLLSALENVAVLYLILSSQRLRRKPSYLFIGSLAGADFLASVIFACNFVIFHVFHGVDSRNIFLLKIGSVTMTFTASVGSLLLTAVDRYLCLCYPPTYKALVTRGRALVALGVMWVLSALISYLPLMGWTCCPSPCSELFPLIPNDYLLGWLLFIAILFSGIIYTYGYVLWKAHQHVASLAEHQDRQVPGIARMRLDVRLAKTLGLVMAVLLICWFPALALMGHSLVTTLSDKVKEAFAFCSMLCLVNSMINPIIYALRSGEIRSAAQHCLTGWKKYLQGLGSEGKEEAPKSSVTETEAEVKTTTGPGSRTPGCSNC
Summary of the method: (§1)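 First, cells in IBMX-containing HEPES-buffered HBSS are raised to elevated cAMP with 2-8 μM NKH-477 for 30 min. Data are normalised to the forskolin and forskolin + 1 μM CP55,940 controls.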

[2] = molecular target: human CB1 receptor (hCB1) (Homo sapiens, UniProt P21554); test: cell-based; assay type: cell-based; settings: for +/− HCB1: agonist or inverse agonist at hCB1
Summary of the method: as §1

[3] = groups >100 nM-10 μM and >10 μM, cAMP, CHO-K1 hCB1, read-out: EC50 HCB1

human CB1 receptor (hCB1), sequence (P21554 whole entry): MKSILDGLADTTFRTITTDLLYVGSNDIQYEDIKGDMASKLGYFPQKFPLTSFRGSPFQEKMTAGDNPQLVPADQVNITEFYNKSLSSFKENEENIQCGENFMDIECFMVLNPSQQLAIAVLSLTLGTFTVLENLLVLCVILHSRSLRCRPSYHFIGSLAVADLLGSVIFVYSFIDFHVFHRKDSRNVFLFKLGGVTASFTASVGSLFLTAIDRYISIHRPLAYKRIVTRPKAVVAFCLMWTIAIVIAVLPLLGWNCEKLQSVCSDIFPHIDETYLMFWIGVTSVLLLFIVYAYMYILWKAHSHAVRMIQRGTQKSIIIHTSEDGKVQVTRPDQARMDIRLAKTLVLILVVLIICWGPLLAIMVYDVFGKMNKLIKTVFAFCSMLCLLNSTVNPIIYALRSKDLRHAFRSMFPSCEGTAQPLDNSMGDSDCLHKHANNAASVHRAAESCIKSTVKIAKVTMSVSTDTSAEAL

Row | Compound | +/− RCB2 [1] | EC50 [2] [nM] | +/− HCB1 [2] | EC50 [1] [µM] | EC50 [2, 3] [nM]
1 | CNC(=O)[C@@H](NC(=O)c1nc(C2=CCC(C)CC2)n2c1CN(C)CC2)C(C)(C)C (stereo partly drawn) [Compound 270, N-((S)-3,3-dimethyl-1-(methylamino)-1-oxobutan-2-yl)-7-methyl-3-(4-methylcyclohex-1-enyl)-5,6,7,8-tetrahydroimidazo[1,5-a]pyrazine-1-carboxamide] | − | > 10000 |  |  | 
2 | CNC(=O)[C@@H](NC(=O)c1nc(C2=CCC(C(C)(C)C)CC2)n2c1CN(C)CC2)C(C)(C)C (stereo partly drawn) [Compound 271, 3-(4-tert-butylcyclohex-1-enyl)-N-((S)-3,3-dimethyl-1-(methylamino)-1-oxobutan-2-yl)-7-methyl-5,6,7,8-tetrahydroimidazo[1,5-a]pyrazine-1-carboxamide] | + |  | + |  | 
3 | CNC(=O)[C@@H](NC(=O)c1nc(C2=CCCCCC2)n2c1CN(C)CC2)C(C)(C)C [Compound 272, (S,E)-3-cycloheptenyl-N-(3,3-dimethyl-1-(methylamino)-1-oxobutan-2-yl)-7-methyl-5,6,7,8-tetrahydroimidazo[1,5-a]pyrazine-1-carboxamide] | + |  | + |  | 
4 | CNC(=O)[C@@H](NC(=O)c1nc(/C=C/C2CC2)n2c1CN(C)CC2)C(C)(C)C [Compound 273, (S,E)-3-(2-cyclopropylvinyl)-N-(3,3-dimethyl-1-(methylamino)-1-oxobutan-2-yl)-7-methyl-5,6,7,8-tetrahydroimidazo[1,5-a]pyrazine-1-carboxamide] |  | > 10000 |  | > 10 | 
5 | CNC(=O)[C@@H](NC(=O)c1nc(C2=CCNCC2)n2c1CN(C)CC2)C(C)(C)C [Compound 274, (S)-N-(3,3-dimethyl-1-(methylamino)-1-oxobutan-2-yl)-7-methyl-3-(1,2,3,6-tetrahydropyridin-4-yl)-5,6,7,8-tetrahydroimidazo[1,5-a]pyrazine-1-carboxamide] | − |  | + |  | 
6 | CNC(=O)[C@H](CC(C)C)NC(=O)c1nc(-c2ccccc2)n2c1CN(C)CC2 [Compound 275, (S)-7-methyl-N-(4-methyl-1-(methylamino)-1-oxopentan-2-yl)-3-phenyl-5,6,7,8-tetrahydroimidazo[1,5-a]pyrazine-1-carboxamide] | + | > 10000 |  |  | 
7 | CNC(=O)[C@H](CC(C)C)NC(=O)c1nc(-c2ccc(Cl)cc2F)n2c1CN(C)CC2 [Compound 276, (S)-3-(4-chloro-2-fluorophenyl)-7-methyl-N-(4-methyl-1-(methylamino)-1-oxopentan-2-yl)-5,6,7,8-tetrahydroimidazo[1,5-a]pyrazine-1-carboxamide] | − | > 10000 |  |  | 
8 | CNC(=O)[C@H](CC(C)C)NC(=O)c1nc(-c2ccc(Cl)c(F)c2)n2c1CN(C)CC2 [Compound 277, (S)-3-(4-chloro-3-fluorophenyl)-7-methyl-N-(4-methyl-1-(methylamino)-1-oxopentan-2-yl)-5,6,7,8-tetrahydroimidazo[1,5-a]pyrazine-1-carboxamide] | − | > 10000 |  |  | 
9 | CNC(=O)[C@H](CC(C)C)NC(=O)c1nc(-c2ccc(F)c(F)c2)n2c1CN(C)CC2 [Compound 278, (S)-3-(3,4-difluorophenyl)-7-methyl-N-(4-methyl-1-(methylamino)-1-oxopentan-2-yl)-5,6,7,8-tetrahydroimidazo[1,5-a]pyrazine-1-carboxamide] | + | > 10000 |  |  | 
10 | CNC(=O)[C@H](CC(C)C)NC(=O)c1nc(C2=CCCC2)n2c1CN(C)CC2 [Compound 279, (S)-3-cyclopentenyl-7-methyl-N-(4-methyl-1-(methylamino)-1-oxopentan-2-yl)-5,6,7,8-tetrahydroimidazo[1,5-a]pyrazine-1-carboxamide] | + |  | + |  | 
11 | CNC(=O)[C@H](CC(C)C)NC(=O)c1nc(C2=CCCCO2)n2c1CN(C)CC2 [Compound 280, (S)-3-(3,4-dihydro-2H-pyran-6-yl)-7-methyl-N-(4-methyl-1-(methylamino)-1-oxopentan-2-yl)-5,6,7,8-tetrahydroimidazo[1,5-a]pyrazine-1-carboxamide] | + | > 10000 |  |  | 
12 | CN1CCn2c(-c3ccccc3)nc(C(=O)N[C@H](C(=O)O)C(C)(C)C)c2C1 [Compound 281, (S)-3,3-dimethyl-2-(7-methyl-3-phenyl-5,6,7,8-tetrahydroimidazo[1,5-a]pyrazine-1-carboxamido)butanoic acid] | + | > 10000 |  |  | 
13 | Cc1noc([C@@H](NC(=O)c2nc(-c3ccccc3)n3c2CNCC3)C(C)(C)C)n1 [Compound 282, (S)-N-(2,2-dimethyl-1-(3-methyl-1,2,4-oxadiazol-5-yl)propyl)-3-phenyl-5,6,7,8-tetrahydroimidazo[1,5-a]pyrazine-1-carboxamide] |  | > 10000 |  | > 10 | 
14 | CN1CCn2c(-c3ccccc3)nc(C(=O)N[C@H](c3nc(C(C)(C)C)no3)C(C)(C)C)c2C1 [Compound 283, (S)-N-(1-(3-tert-butyl-1,2,4-oxadiazol-5-yl)-2,2-dimethylpropyl)-7-methyl-3-phenyl-5,6,7,8-tetrahydroimidazo[1,5-a]pyrazine-1-carboxamide] | − | > 10000 |  |  | 
15 | CC(C)(C)c1noc([C@@H](NC(=O)c2nc(-c3ccccc3)n3c2CN(C2CC2)CC3)C(C)(C)C)n1 [Compound 284, (S)-N-(1-(3-tert-butyl-1,2,4-oxadiazol-5-yl)-2,2-dimethylpropyl)-7-cyclopropyl-3-phenyl-5,6,7,8-tetrahydroimidazo[1,5-a]pyrazine-1-carboxamide] | − | > 10000 |  |  | 
16 | CN1CCn2c(-c3ccccc3)nc(C(=O)N[C@H](C(N)=O)C(C)(C)C)c2C1 [Compound 285, (S)-N-(1-amino-3,3-dimethyl-1-oxobutan-2-yl)-7-methyl-3-phenyl-5,6,7,8-tetrahydroimidazo[1,5-a]pyrazine-1-carboxamide] |  | > 10000 |  | > 10 | 
17 | CNC(=O)[C@@H](NC(=O)c1nc(/C=C/CN2CCOCC2)n2c1CN(C)CC2)C(C)(C)C [Compound 286, (S,E)-N-(3,3-dimethyl-1-(methylamino)-1-oxobutan-2-yl)-7-methyl-3-(3-morpholinoprop-1-enyl)-5,6,7,8-tetrahydroimidazo[1,5-a]pyrazine-1-carboxamide] | + | > 10000 |  |  | 
18 | CNC(=O)[C@@H](NC(=O)c1nc(/C=C/CN2CCCCC2)n2c1CN(C)CC2)C(C)(C)C [Compound 287, (S,E)-N-(3,3-dimethyl-1-(methylamino)-1-oxobutan-2-yl)-7-methyl-3-(3-(piperidin-1-yl)prop-1-enyl)-5,6,7,8-tetrahydroimidazo[1,5-a]pyrazine-1-carboxamide] | + | > 10000 |  |  | 
19 | CNC(=O)[C@@H](NC(=O)c1nc(/C=C/CN2CCCC2)n2c1CN(C)CC2)C(C)(C)C [Compound 288, (S,E)-N-(3,3-dimethyl-1-(methylamino)-1-oxobutan-2-yl)-7-methyl-3-(3-(pyrrolidin-1-yl)prop-1-enyl)-5,6,7,8-tetrahydroimidazo[1,5-a]pyrazine-1-carboxamide] | − | > 10000 |  |  | 
20 | CNC(=O)[C@@H](NC(=O)c1nc(C(=O)c2ccccc2)n2c1CN(C)CC2)C(C)(C)C [Compound 289, (S)-3-benzoyl-N-(3,3-dimethyl-1-(methylamino)-1-oxobutan-2-yl)-7-methyl-5,6,7,8-tetrahydroimidazo[1,5-a]pyrazine-1-carboxamide] | − | > 10000 |  |  | 
21 | CNC(=O)[C@@H](NC(=O)c1nc(C(=O)Nc2ccccc2)n2c1CN(C)CC2)C(C)(C)C [Compound 290, (S)-N1-(3,3-dimethyl-1-(methylamino)-1-oxobutan-2-yl)-7-methyl-N3-phenyl-5,6,7,8-tetrahydroimidazo[1,5-a]pyrazine-1,3-dicarboxamide] | − | > 10000 |  |  | 
22 | CC(C)(C)CC(=O)c1nc(-c2ccccc2)n2c1CNCC2 [Compound 291, 3,3-dimethyl-1-(3-phenyl-5,6,7,8-tetrahydroimidazo[1,5-a]pyrazin-1-yl)butan-1-one 2,2,2-trifluoroacetate] | − | > 10000 |  |  | 
23 | CN1CCn2c(-c3ccccc3)nc(C(=O)CC(C)(C)C)c2C1 [Compound 292, 3,3-dimethyl-1-(7-methyl-3-phenyl-5,6,7,8-tetrahydroimidazo[1,5-a]pyrazin-1-yl)butan-1-one] | − |  |  |  | > 10000
24 | CC(C)=CC(=O)c1nc(-c2ccccc2)n2c1CN(C)CC2 [Compound 293, 3-methyl-1-(7-methyl-3-phenyl-5,6,7,8-tetrahydroimidazo[1,5-a]pyrazin-1-yl)but-2-en-1-one] | − |  |  |  | > 10000
25 | CN1CCn2c(-c3ccccc3)nc(C(=O)CCCc3ccccc3)c2C1 [Compound 294, 1-(7-methyl-3-phenyl-5,6,7,8-tetrahydroimidazo[1,5-a]pyrazin-1-yl)-4-phenylbutan-1-one] | − |  |  |  | > 10000
26 | CNC(=O)[C@@H](NC(=O)c1nc(C(O)c2ccccc2)n2c1CN(C)CC2)C(C)(C)C (stereo partly drawn) [Compound 295, N-((S)-3,3-dimethyl-1-(methylamino)-1-oxobutan-2-yl)-3-(hydroxy(phenyl)methyl)-7-methyl-5,6,7,8-tetrahydroimidazo[1,5-a]pyrazine-1-carboxamide] |  | > 10000 |  | > 10 | 
